Assay results reported in the supplement of paper PMC4862054.
“And” between values parts separate entries of the source, which are not always exact repeats. Equal entries are not always repeated.

Experiments:
Conditions in all cases: incubation time: 72 h
BT-549 [1] = test: drug sensitivity score (DSS), CellTiter-Blue viability (DSS (AUC-based score)); higher = stronger viability inhibition; extreme values may be limits of the assay
Method: (§1)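 DSRT with the CellTiter-Blue (resazurin reduction) viability readout, fluorescence 560/590 nm, 72 h incubation. Plates were normalised to DMSO and benzethonium chloride controls. DSS is computed from the area under the fitted dose-response curve (5 or 9 concentrations).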

CAL-85-1 = test: as above
Method: as §1

MDA-MB-231 = test: as above
Method: as §1

MDA-MB-453 = test: as above
Method: as §1

CAL-120 = test: as above
Method: as §1

CAL-148 = test: as above
Method: as §1

MDA-MB-468 [2] = test: as above
Method: as §1

HDQ-P1 [3] = test: as above
Method: as §1

SK-BR-3 = test: as above
Method: as §1

HCC1599 [4] = test: as above
Method: as §1

MDA-MB-436 [5] = test: as above
Method: as §1

MFM-223 [6] = test: as above
Method: as §1

BT-474 [7] = test: as above
Method: as §1

HCC1937 [8] = test: as above
Method: as §1

BT-549 [9] = test: drug sensitivity score (DSS), CellTox Green (DSS (AUC-based score)); higher = stronger drug effect (viability inhibition or cytotoxicity); extreme values may be limits of the assay
Procedure, shortened: (§2)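 The area under the fitted dose-response curve was used to calculate the drug sensitivity score. Cells from breast cancer lines were incubated for 72 h in 384-well plates with compound at 5 concentrations spaced 10-fold over a 10,000-fold range specific to each compound. Plates were read for CellTox Green and then CellTiter-Glo, and normalised to 0.1 % DMSO and a positive kill control.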

CAL-51 = test: as above
Procedure, shortened: as §2

MDA-MB-468 [10] = test: as above
Procedure, shortened: as §2

HDQ-P1 [11] = test: as above
Procedure, shortened: as §2

Hs578T = test: as above
Procedure, shortened: as §2

HCC1599 [12] = test: as above
Procedure, shortened: as §2

DU-4475 = test: as above
Procedure, shortened: as §2

MDA-MB-436 [13] = test: as above
Procedure, shortened: as §2

MFM-223 [14] = test: as above
Procedure, shortened: as §2

BT-474 [15] = test: as above
Procedure, shortened: as §2

HCC1937 [16] = test: as above
Procedure, shortened: as §2

MCF-10A = test: as above
Procedure, shortened: as §2

SMILES | drug sensitivity score (BT-549 [1]) | drug sensitivity score (CAL-85-1) | drug sensitivity score (MDA-MB-231) | drug sensitivity score (MDA-MB-453) | drug sensitivity score (CAL-120) | drug sensitivity score (CAL-148) | drug sensitivity score (MDA-MB-468 [2]) | drug sensitivity score (HDQ-P1 [3]) | drug sensitivity score (SK-BR-3) | drug sensitivity score (HCC1599 [4]) | drug sensitivity score (MDA-MB-436 [5]) | drug sensitivity score (MFM-223 [6]) | drug sensitivity score (BT-474 [7]) | drug sensitivity score (HCC1937 [8]) | drug sensitivity score (BT-549 [9]) | drug sensitivity score (CAL-51) | drug sensitivity score (MDA-MB-468 [10]) | drug sensitivity score (HDQ-P1 [11]) | drug sensitivity score (Hs578T) | drug sensitivity score (HCC1599 [12]) | drug sensitivity score (DU-4475) | drug sensitivity score (MDA-MB-436 [13]) | drug sensitivity score (MFM-223 [14]) | drug sensitivity score (BT-474 [15]) | drug sensitivity score (HCC1937 [16]) | drug sensitivity score (MCF-10A)
CO[C@H](C(=O)[C@@H](O)[C@@H](C)O)[C@@H]1Cc2cc3cc(O[C@H]4C[C@@H](O[C@@H]5C[C@@H](O)[C@H](O)[C@@H](C)O5)[C@H](O)[C@@H](C)O4)c(C)c(O)c3c(O)c2C(=O)[C@H]1O[C@H]1C[C@@H](O[C@@H]2C[C@@H](O)[C@@H](O[C@@H]3C[C@](C)(O)[C@H](O)[C@@H](C)O3)[C@@H](C)O2)[C@H](O)[C@@H](C)O1 [Plicamycin] | 27.1 and 27.9 | 22.8 and 23.8 | 26 and 26.4 | 22.7 and 24.3 | 22.5 and 23.6 | 25.6 and 24.2 | 29.9 and 30.3 | 17.6 and 22.2 | 25 and 27.1 | 18.9 and 20.2 | 23.3 and 27.5 | 18.2 and 19 | 16.8 and 17.6 | 21.1 and 22.3 | 0 | 7.69 | 9.57 | 0 | 1.28 | 0 | 0 | 0 | 0 | 0 | 0 | 6.07
CO[C@H]1C[C@@H]2CC[C@@H](C)[C@@](O)(O2)C(=O)C(=O)N2CCCC[C@H]2C(=O)O[C@H]([C@H](C)C[C@@H]2CC[C@@H](O)[C@H](OC)C2)CC(=O)[C@H](C)/C=C(\C)[C@@H](O)[C@@H](OC)C(=O)[C@H](C)C[C@H](C)/C=C/C=C/C=C/1C [Sirolimus] | 20.8 | 17 | 0 | 27.8 | 17.3 | 19.8 | 14.2 | 13.2 | 15.4 | 9.43 | 0 | 21.3 | 0 | 20.4 | 0 | 0 | 0 | 0 | 0 | 0 | 0 | 0 | 0 | 0 | 1.4 | 0
CN1CCN(c2nc(C3=C(c4c[nH]c5ccccc45)C(=O)NC3=O)c3ccccc3n2)CC1 [Sotrastaurin] | 0 | 0 | 0 | 0 | 0 | 0 | 0 | 0 | 0 | 0 | 0 | 0 | 0 | 0 | 0 | 0 | 0 | 0 | 0 | 0 | 0 | 0 | 0 | 0 | 0 | 0
CC/C(=C(\c1ccccc1)c1ccc(OCCN(C)C)cc1)c1ccccc1 [Tamoxifen] | 1.73 | 0 | 0 | 2.6 | 0 | 0 | 3.95 | 0 | 0 | 0 | 2.35 | 0 | 0 | 0 | 0 | 0 | 3.42 | 0 | 0 | 0 | 0 | 1.29 | 0 | 4.12 | 17.1 | 0
COc1cc2c(N3CCN(C(=O)Nc4ccc(OC(C)C)cc4)CC3)ncnc2cc1OCCCN1CCCCC1 [Tandutinib] | 0 | 0 | 0 | 0 | 0 | 0.668 | 0 | 0 | 0 | 0 | 0 | 0 | 0 | 0 | 0 | 0 | 0 | 0 | 0 | 0 | 0 | 0 | 0 | 0 | 0 | 0
Cn1nnc2c(C(N)=O)ncn2c1=O [Temozolomide] | 2.1 | 0 | 0 | 0 | 0 | 0 | 0 | 1.58 | 0 | 0 | 0 | 0 | 0 | 0 | 0 | 0 | 0 | 0 | 0 | 0 | 0 | 0 | 0 | 0 | 0 | 0
CC[C@@H]1C(=O)N(C)c2cnc(Nc3ccc(C(=O)N[C@H]4CC[C@H](N5CCN(CC6CC6)CC5)CC4)cc3OC)nc2N1C(C)C [Volasertib] | 12.3 | 10.9 | 12.3 | 19.2 | 20.5 | 17.8 | 11.9 | 5.17 | 19.8 | 0 | 3.18 | 16.9 | 8.65 | 16.3 | 3.98 | 14.5 | 0 | 7.16 | 10.7 | 0 | 0 | 0 | 14.5 | 0 | 17.3 | 19.4
